Results as given in US20120095108A1, “COMPOSITION CONTAINING MICROBIAL ZEAXANTHIN AND PREPARATION THEREOF” (Vigenent Inc., priority 2010, published 2012).

Columns and labels:
[1] = test system: prostate carcinoma (PC-3); assay: Anti-proliferation MTT assay, PC-3; type: cell-based; conditions: Homo sapiens, 24 hrs, read-out: cell viability
Procedure: (§1) Cancer cells were cultured on a dish, and the cells were treated with microbial zeaxanthin dissolved in dimethyl sulfoxide. After 24 hrs incubation, thiazolyl blue tetrazolium bromide was added to the cells and incubated for 4 hours. The medium was removed and the crystals were dissolved in dimethyl sulfoxide followed by measuring the absorbance at 590 nm. Cell viability=(Abs of cell treated zeaxanthin/Abs of cell with no treatment)*100%. Since xanthophylls have been reported to be associated with lower risk of cancers (Orjuela et al., (2005) Cancer Epidemiol Biomarkers Prey. 14:1433-40; Kelemen et al., (2006) Am J Clin Nutr. 83: 1401-10; Zhang et al., (2007) Nutr Cancer. 59:46-53; Tamimi et al., (2009) Cancer Res. 69: 9323-9; Lee et al., (2009) Cancer Epidemiol Biomarkers Prey. 18:1730-9), it is necessary to determine if the microbial zeaxanthin contains anti-cancer activity. […] For comparison, the cell viabilities of non-cancer cells are 105.6% for retinal pigmented epithelium cell (ARPE-19); 102.3% for embryonic fibroblast (BCRC60118) and 95.8% for human skin fibroblast (BCRC 60153). […] For comparison, the cell viabilities of non-cancer cells are 124.2% for retinal pigmented epithelium cell (ARPE-19); 101.2% for embryonic fibroblast (BCRC60118) and 99.8% for human skin fibroblast (BCRC 60153). […]

[2] = test system: colorectal adenocarcinoma (LS123); assay: Anti-proliferation MTT assay, LS123; type: cell-based; conditions: Homo sapiens, 24 hrs, read-out: cell viability
Procedure: as §1

[3] = test system: gastric adenocarcinoma (AGS); assay: Anti-proliferation MTT assay, AGS; type: cell-based; conditions: Homo sapiens, 24 hrs, read-out: cell viability
Procedure: as §1

[4] = test system: breast adenocarcinoma (MCF7); assay: Anti-proliferation MTT assay, MCF7; type: cell-based; conditions: Homo sapiens, 24 hrs, read-out: cell viability
Procedure: as §1

[5] = test system: ovarian cancer (TOV-112D); assay: Anti-proliferation MTT assay, TOV-112D; type: cell-based; conditions: Homo sapiens, TOV112D, 24 hrs, read-out: cell viability
Procedure: as §1

[6] = test system: pharynx squamous cell carcinoma (FaDu); assay: Anti-proliferation MTT assay, FaDu; type: cell-based; conditions: Homo sapiens, 24 hrs
Procedure: as §1

[7] = test system: pancreatic adenocarcinoma (BxPC-3); assay: Anti-proliferation MTT assay, BxPC-3; type: cell-based; conditions: Homo sapiens, 24 hrs, read-out: cell viability
Procedure: as §1

choriocarcinoma (JAR) = assay: Anti-proliferation MTT assay, JAR; type: cell-based; conditions: Homo sapiens, 24 hrs, read-out: cell viability
Procedure: as §1

[8] = test system: bladder primary carcinoma (5637); assay: Anti-proliferation MTT assay, 5637; type: cell-based; conditions: Homo sapiens, 24 hrs, read-out: cell viability
Procedure: as §1

[9] = test system: thyroid squamous cell carcinoma (SW579); assay: Anti-proliferation MTT assay, SW579; type: cell-based; conditions: Homo sapiens, 24 hrs
Procedure: as §1

[10] = MTT assay, non-cancer cells ARPE-19; type: cell-based; conditions: human, ARPE-19 retinal pigmented epithelium cells (non-cancer), read-out: cell viability of non-cancer cells
Procedure: as §1

[11] = MTT assay, non-cancer cells BCRC60118; type: cell-based; conditions: human, embryonic fibroblast cells BCRC60118 (non-cancer), read-out: cell viability of non-cancer cells
Procedure: as §1

[12] = MTT assay, non-cancer cells BCRC 60153; type: cell-based; conditions: human, skin fibroblast cells BCRC 60153 (non-cancer), read-out: cell viability of non-cancer cells
Procedure: as §1

[13] = Lipid peroxidation inhibitory activity, ferric thiocyanate method; type: biochemical; conditions: 60 μg/ml; OD 500 nm; 24 hours incubation 37° C.
Procedure: Microbial zeaxanthin was dissolved in 0.2 M potassium phosphate buffer and mixed with linoleic acid emulsion mixture prepared by potassium phosphate buffer. After 24 hours incubation in 37° C., the mixture was added with 75% ethanol, ammonium thiocyanate, and iron(II) chloroide tetrahydrate. The absorbance at 500 nm was determined after 1 min incubation. Inhibtion activity=[1−(Abs of sample/Abs of blank)]*100%.

[14] = Lipid peroxidation inhibitory activity, conjugated diene method; type: biochemical; conditions: 30 μg/ml; OD 234 nm; 15 hour incubation 37° C.
Procedure: Microbial zeaxanthin was dissolved in 0.2 M potassium phosphate buffer and mixed with linoleic acid emulsion mixture prepared by potassium phosphate buffer. The absorbance of 234 nm was determined after 15 hour incubation in 37° C. Inhibition activity=[1−(Abs of sample/Abs of blank)]*100%.

[15] = test system: Human skin fibroblast cells (CCD-966SK cell line); assay: Photoprotection activity: viability of UV-irradiated human skin fibroblast cells; type: cell-based; conditions: 15 min UV irradiation, determined at 24 hours
Procedure: Human skin fibroblast cells (CCD-966SK cell line) were cultured on the dish. The cells were treated with microbial zeaxanthin dissolved in dimethyl sulfoxide. After treated for 24 hours the dishes were irradiated UV for 15 min and the cells were incubated for 24 hours. The cells were detached by trypsin and counted by hemocytometer. The protection effect of microbial zeaxanthin on the viability of fibroblast cells is provided (FIG. 3).
Skin fibroblast cells, the essential cells of skin, are responsible for the production of collagen, a structural component of the skin (Stanley et al., (1985) J Invest Dermatol. 85:542-545; Olsen et al., (1989) J. Clin. Invest. 83: 791-795; Akagi et al., (1999) J. Invest. Dermatol. 113: 246-250). Collagen reduction is a biological phenomenon responsible for the wrinkled appearance found in the aged skin caused either intrinsic (chronologic aging) or extrinsic (e.g., photoaging: exposure to UV irradiation) (Burke et al., (1994) Exp Gerontol 29:37-53; Fisher et al., (1997) New Eng J Med 337:1419-1428; Fligiel et al., (2003) J Invest Dermatol. 120:842-848; Varani et al., (2006) Am J Pathol. 168:1861-8; Chauhan and Shakya, (2009) Indian J Dermatol Venereol Leprol. 75:463-8). […]

[16] = Lipid peroxidation inhibitory activity, liposome-TBARS method; type: biochemical; conditions: OD 532 nm
Procedure: Microbial zeaxanthin was dissolved in methanol and mixed with liposome emulsion, iron(III) chloride, and ascorbic acid. After 2 hours water bath in 37° C. the mixture was added with butylated hydorxytoluene, thibarbituric acid, and trichloroacetic acid. After 20 min of water bath (100° C.), the mixture was chilled with ice. The absorbance at 532 nm was determined. MDA (malondialdehyde) inhibiton activity=[1−(Abs of sample/Abs of blank)]*100%.

[17] = Total antioxidant activity, TEAC (trolox equivalent antioxidant capacity) method; type: biochemical; conditions: OD 734 nm
Procedure: Microbial zeaxanthin was dissolved in 0.01M sodium phosphate buffer and mixed with 2,2′-azino-bis(3-ethylbenzthiazoline-6-sulphonic acid) containing potassium persulfate. The absorbance at 734 nm was determined after 30 min incubation. Inhibition activity=[1−(Abs of sample/Abs of blank)]*100%.

[18] = Antioxidant activity, DPPH free radical scavenging method; type: biochemical; conditions: OD 517 nm
Procedure: Microbial zeaxanthin was dissolved in methanol and mixed with 2,2-diphenyl-1-picrylhydrazyl in methanol. The absorbance at 517 nm was determined after 30 min incubation. Inhibition activity=[1−(Abs of sample/Abs of blank)]*100%.

B16/F10 melanoma cells = assay: Melanin content in melanoma cells; type: cell-based; conditions: Mus musculus, OD 400 nm; for inhibition at 2 µg/mL: 2 μg/ml; for inhibition at 20 µg/mL: 20 μg/ml
Procedure: B16 F0 mouse melanoma cells were cultured on the dish. The cells were treated with microbial zeaxanthin dissolved in dimethyl sulfoxide. After treated for 24 hrs and 48 hrs, respectively, the medium was removed and the cells were washed with PBS and then dissolved in 1 N NaOH containing 10% DMSO. The relative melanin content was determined at OD400 nm.

[19] = cited from earlier work

Q: Which viability at 30 µg/mL ([1]; 30 μg/ml) does the source give for CC1=C(/C=C/C(C)=C/C=C/C(C)=C/C=C/C=C(C)/C=C/C=C(C)/C=C/C2=C(C)C[C@@H](O)CC2(C)C)C(C)(C)C[C@H](O)C1 (stereo in doubt) [microbial zeaxanthin, 4-[18-(4-hydroxy-2,6,6-trimethyl-1-cyclohexenyl)-3,7,12,16-tetramethyl-octadeca-1,3,5,7,9,11,13,15,17-nonaenyl]-3,5,5-trimethyl-cyclohex-3-en-1-ol] here?
A: 74%

Q: And the viability at 60 µg/mL ([1]; 60 μg/ml)?
A: 67.7%

Q: What about the viability at 30 µg/mL ([2]; LS-123, 30 μg/ml) of the same compound?
A: 72.3%

Q: What about the viability at 60 µg/mL ([2]; LS-123, 60 μg/ml) of the same compound?
A: 75.3%

Q: And the viability at 30 µg/mL ([3]; 30 μg/ml)?
A: 57.3%

Q: What about the viability at 60 µg/mL ([3]; 60 μg/ml) of the same compound?
A: 40.1%

Q: What about the viability at 30 µg/mL ([4]; 30 μg/ml) of the same compound?
A: 78.7%

Q: What about the viability at 60 µg/mL ([4]; 60 μg/ml) of the same compound?
A: 61.6%

Q: And the viability at 30 µg/mL ([5]; 30 μg/ml)?
A: 70.3%

Q: What about the viability at 60 µg/mL ([5]; 60 μg/ml) of the same compound?
A: 20.3%

Q: And the viability at 30 µg/mL ([6]; 30 μg/ml)?
A: 72.6%

Q: And the viability at 60 µg/mL ([6]; 60 μg/ml)?
A: 28.5%

Q: And the viability at 30 µg/mL ([7]; 30 μg/ml)?
A: 75.6%

Q: What about the viability at 60 µg/mL ([7]; 60 μg/ml) of the same compound?
A: 33.4%

Q: What about the viability at 30 µg/mL (choriocarcinoma (JAR); 30 μg/ml) of the same compound?
A: 72.1%

Q: And the viability at 60 µg/mL (choriocarcinoma (JAR); 60 μg/ml)?
A: 40%

Q: What about the viability at 30 µg/mL ([8]; 30 μg/ml) of the same compound?
A: 45.9%

Q: What about the viability at 60 µg/mL ([8]; 60 μg/ml) of the same compound?
A: 16.4%

Q: What about the viability at 30 µg/mL ([9]; 30 μg/ml) of the same compound?
A: 70.9%

Q: And the viability at 60 µg/mL ([9]; 60 μg/ml)?
A: 71.7%

Q: And the viability at 24 h, 30 μg/ml ([10]; 30 μg/ml)?
A: 106%

Q: What about the viability at 24 h, 60 μg/ml ([10]; 60 μg/ml) of the same compound?
A: 124%

Q: And the viability at 24 h, 30 μg/ml ([11]; 30 μg/ml)?
A: 102%

Q: What about the viability at 24 h, 60 μg/ml ([11]; 60 μg/ml) of the same compound?
A: 101%

Q: What about the viability at 24 h, 30 μg/ml ([12]; 30 μg/ml) of the same compound?
A: 95.8%

Q: What about the viability at 24 h, 60 μg/ml ([12]; 60 μg/ml) of the same compound?
A: 99.8%

Q: What does the source list for CC1=C[C@H](O)CC(C)(C)[C@H]1/C=C/C(C)=C/C=C/C(C)=C/C=C/C=C(C)/C=C/C=C(C)/C=C/C1=C(C)C[C@@H](O)CC1(C)C [lutein, reference compound]?
A: lipid peroxidation inhibitory activity (ferric thiocyanate method) [13]: 68.6%; lipid peroxidation inhibitory activity (conjugated diene method) [14]: 68.7%

Q: For CC1=C(/C=C/C(C)=C/C=C/C(C)=C/C=C/C=C(C)/C=C/C=C(C)/C=C/C2=C(C)C[C@@H](O)CC2(C)C)C(C)(C)C[C@H](O)C1 [microbial zeaxanthin, 4-[18-(4-hydroxy-2,6,6-trimethyl-1-cyclohexenyl)-3,7,12,16-tetramethyl-octadeca-1,3,5,7,9,11,13,15,17-nonaenyl]-3,5,5-trimethyl-cyclohex-3-en-1-ol], which “cell viability increased as compared to no zeaxanthin treatment” value ([15]; 20 μg/ml) is on record?
A: 18.9%

Q: What about the “cell viability increased as compared to no zeaxanthin treatment” value ([15]; 50 μg/ml) of the same compound?
A: 33.7%

Q: What about the “lipid peroxidation inhibitory activity (ferric thiocyanate method)” value [13] of the same compound?
A: 66.9%

Q: What about the “lipid peroxidation inhibitory activity (conjugated diene method)” value [14] of the same compound?
A: 67.4%

Q: And the “inhibition on free MDA formation” value ([16]; 125 μg/ml)?
A: 55.23%

Q: And the “inhibition on free MDA formation” value ([16]; 250 μg/ml)?
A: 61.05%

Q: And the “inhibition on free MDA formation” value ([16]; 500 μg/ml)?
A: 71.16%

Q: And the “inhibition on free MDA formation” value ([16]; 1000 μg/ml)?
A: 78.45%

Q: And the “inhibition on free MDA formation” value ([16]; 2000 μg/ml)?
A: 80.75%

Q: And the “inhibition on absorbance (TEAC)” value ([17]; 62.5 μg/ml)?
A: 15.68%

Q: And the “inhibition on absorbance (TEAC)” value ([17]; 125 μg/ml)?
A: 28.13%

Q: What about the “inhibition on absorbance (TEAC)” value ([17]; 250 μg/ml) of the same compound?
A: 53.35%

Q: And the “inhibition on absorbance (TEAC)” value ([17]; 500 μg/ml)?
A: 91.22%

Q: What about the “inhibition on absorbance (DPPH)” value ([18]; 62.5 μg/ml) of the same compound?
A: 10.02%

Q: And the “inhibition on absorbance (DPPH)” value ([18]; 125 μg/ml)?
A: 13.04%

Q: What about the “inhibition on absorbance (DPPH)” value ([18]; 250 μg/ml) of the same compound?
A: 30.18%

Q: And the “inhibition on absorbance (DPPH)” value ([18]; 500 μg/ml)?
A: 48.20%

Q: And the “inhibition on absorbance (DPPH)” value ([18]; 1000 μg/ml)?
A: 96.69%

Q: And the inhibition at 2 µg/mL (B16/F10 melanoma cells; 24 hrs)?
A: 6.74%

Q: And the inhibition at 2 µg/mL (B16/F10 melanoma cells; 48 hrs)?
A: 32.5%

Q: What about the inhibition at 20 µg/mL (B16/F10 melanoma cells; 24 hrs) of the same compound?
A: 22.7%

Q: And the inhibition at 20 µg/mL (B16/F10 melanoma cells; 48 hrs)?
A: 36.7%

Q: What about the Solubility in chloroform ([19]; chloroform) of the same compound?
A: soluble giving a clear intensive orange-red

Q: What about the Solubility in ethanol ([19]; ethanol) of the same compound?
A: sparingly

Q: What about the Solubility in water ([19]; water) of the same compound?
A: insoluble
